For the data set, the system named is U87MG cells. In words: Cytotoxic experiment, cell viability with tetrazolium salt derivatives. The format is cell-based. As to conditions: 72 hours, free drug 0.01-100 μM, FIG. 5. As for the experimental part:
An experiment is performed to identify cytotoxicity of the manufactured microbubble drug delivery system and the drug delivery system loading the drugs. The experiment is performed after an experimental group manufactured by using the method in Example 1-2 (microbubble drug delivery system loading paclitaxel PTX@MB) and a control group (microbubble without loaded drugs MB) are deaerated to burst bubbles. Each solution is added to U87MG cells to respectively set final concentrations to 10%, 1%, 0.1%, 0.01%, and 0.001% and final concentrations of free paclitaxel are respectively set to 100 μM, 10 μM, 1 μM, 0.1 μM, and 0.01 μM. 5000 cells are grown in each well and cells are cultured for 72 hours. Then, a solution containing a cell culture fluid and tetrazolium salt derivatives are added to measure cell viability and in-vitro cytotoxicity of each material is identified.

1 compound from patent publication US20240207650A1, “ULTRASOUND-INDUCED MICROBUBBLE DRUG DELIVERY SYSTEM LOADING STABILIZED HYDROPHOBIC DRUG WITH POLYETHYLENE GLYCOL BASED NONIONIC SURFACTANT AND METHOD OF MANUFACTURING THE SAME” (SAHMYOOK UNIVERSITY INDUSTRY-ACADEMIC COOPERATION FOUNDATION, priority 2022, published 2024) can be followed below.

Take `CC(=O)O[C@H]1C(=O)[C@@]2(C)[C@H]([C@H](OC(=O)c3ccccc3)[C@]3(O)C[C@H](OC(=O)[C@H](O)[C@@H](NC(=O)c4ccccc4)c4ccccc4)C(C)=C1C3(C)C)[C@]1(OC(C)=O)CO[C@@H]1C[C@@H]2O` [free paclitaxel, Paclitaxel]: the “concentration at which cytotoxicity is identified” value is “above 1 μM”.
